In data set [1] the test system is mouse embryonic fibroblasts (Mef). In words: CellTiter-blue cell viability assay (ctb), fibroblasts. It is filed as cell-based. To be noted: Mef cells, increasing concentrations, FIG. 2A. On the procedure:
Toxicity was checked by subjecting mouse embryonic fibroblasts (Mef) and the hippocampal cell line HT22 to a CellTiter-blue cell viability assay (ctb).
Mouse embryonic fibroblasts (Mef) (Sigma-Aldrich) and hippocampal HT22 (ThermoScientific) cells were cultured according to the manufacturer's protocols. Ctb assays were performed according to the manufacturer's protocols (Promega).

Data set [2] relates to experimental autoimmune encephalomyelitis (EAE) mice. In words: EAE clinical score, treatment during the chronic phase. It is filed as in vivo, mouse. Particulars: chronic phase of EAE, vs PBS. On the procedure: To test whether Link4 has similar effects to IL-4 in vivo, two pilot experiments were performed. In the first experiment (FIG. 3A), B16 mice were subjected to EAE and treated with IL-4, Link4, Ph8 and PBS (n=6-7 animals per group) via lumbar intrathecal injection directly into the cerebrospinal fluid (CSF) every other day for 14 days, in the chronic phase of the disease starting from day 5 after the first disease peak (grey bar). […] For better clinical translation, the treatment was then switched to nasal treatment with IL-4 and Link4 (FIG. 3B; 2 pooled experiments, n=15-16 per group). Nasally applied treatments can enter the brain through the cribriform plate, where olfactory nerve fibers cross through the bone, resulting in a connection between the roof of the nasal cavity and the brain (C. F. Xiao, F. J. Davis, B. C. Chauhan, K. L. Viola, P. N. Lacor, P. T. Velasco, W. L. Klein, and N. B. Chauhan, Brain transit and ameliorative effects of intranasally delivered anti-amyloid-beta oligomer antibody in 5XFAD mice. J Alzheimers Dis 35, 777-788 (2013)). Again, both IL-4 and Link4 treatments were beneficial.
For active EAE, female 9-10-weeks-old C57BI6 mice were immunized as previously described (M. Paterka, J. O. Voss, J. Werr, E. Reuter, S. Franck, T. Leuenberger, J. Herz, H. Radbruch, T. Bopp, V. Siffrin, and F. Zipp, Dendritic cells tip the balance towards induction of regulatory T cells upon priming in experimental autoimmune encephalomyelitis. J Autoimmun 67, 108-114 (2017)) by subcutaneous injection of 200 μg myelin oligodendrocyte […] 35-55 (MOG35-55) mixed with complete Freund adjuvant (CFA). Following the MOG35-55 immunization 400 ng pertussis toxin (PTX) was administered intraperitoneally at the day of immunizaton and after 24 h. Clinical signs were scored using the following parameters:
Treatment with rIL-4 (1 μg, Peprotech), Ph8 (1 μg, custom synthesized, Schafer N), Link4 (1 μg, custom synthesized, Schafer N) or vehicle (PBS) was performed during the chronic phase of the disease models by lumbar intrathecal injection (R. Lu and A. Schmidtko, Direct intrathecal drug delivery in mice for detecting in vivo effects of cGMP on pain processing. Methods Mol Biol 1020, 215-221 (2013)) or nasal application of IL-4 and Link4 was performed according to published procedures (C. F. Xiao, F. J. Davis, B. C. Chauhan, K. L. Viola, P. N. Lacor, P. T. Velasco, W. L. Klein, and N. B. Chauhan, Brain transit and ameliorative effects of intranasally delivered anti-amyloid-beta oligomer antibody in SXFAD mice. J Alzheimers Dis 35, 777-788 (2013)). Mice were pre-trained to avoid stress and held at a 45 degree angle to apply IL-4 solution (1 μg, Peprotech) to the nostrils using a pipette tip.

Data set [3] has as its system dissociated cortical neurons. In words: Phosphorylation of signalling molecules (Western blot). Type of data set: cell-based, mouse. Particulars: 50 ng/ml, 10 min treatment, FIG. 5B. On the procedure: A: Cortical outgrowth in response to 50 ng/ml IL-4, Link4, or Link13, compared to PBS control. The increase in growth at 48 h was calculated over the basal (untreated) growth at 24 h. B: Effects on phosphorylation of signalling molecules after 10 min treatment of dissociated cortical neurons with IL-4, Link4 or PBS.
Neonatal (P1-3) cortex explants were dissected from 250 μm thick vibratome (HM650V, Thermo Fisher) sections from Bregma 0 to −1.5 (motor cortex). Cortical layer V was micro-dissected, plated on poly-D-lysine (0.5 mg/ml) and laminin (1 mg/ml)-coated glass coverslips and grown for 24 h in neurobasal medium with 2% horse serum, 2% B27, 1% glutamax and 0.5% penicillin/streptomycin. Explants were treated for 48 h with rIL-4 (50 ng/ml), Link4 (50 ng/ml), Link13 (50 ng/ml) or PBS. Axon length was assessed using Adobe Photoshop by measuring the distance of the 40 longest axons, corrected for the initial growth at 24 h. […]
For Western blotting, the following primary antibodies were used: anti-IRS1 (EMD Millipore), anti-phospho-IRS1 (Cell Signaling Technology), anti-MAPK and anti-phospho-MAPK (Cell Signaling Technology), anti-PKCγ (Santa-Cruz), anti-phospho-PKCγ (Biozol). DyLight […]-coupled secondary antibodies were used for quantitative analysis of the proteins using the Li-Cor Odyssey FC imaging system (Li-Cor Bioscience). […]

“Also recorded” adds a separate entry of the source.

Consider “RARSEIIGIGSKSIMQMDY (listed as Mus musculus) [Link4]”, for which the “toxic effects on fibroblasts (cell viability)” value in data set [1] is “no toxic effects”. The clinical score result in data set [2] (lumbar intrathecal injection, 1 μg every other day for 14 days) was “significant improvement in the clinical score; also recorded: significant amelioration of the clinical score”; in data set [2] (lumbar intrathecal injection, 1 μg every other day for 14 days, listed as mouse Link4) it was “reducing disease symptoms”; in data set [2] (nasal application), “significant improvement in the clinical score; also recorded: beneficial”. In addition, the “phosphorylation of signalling molecules (neuronal signalling)” value in data set [3] is “same neuronal signalling effects as IL-4”.

These data come from patent US20200377568A1, “Novel IL-4-/IL-13-derived peptide compounds for the treatment or prevention of neurodegenerative or neuroinflammatory diseases” (Universitätsmedizin der Johannes Gutenberg-Universität Mainz, priority 2018, published 2020).
